Key:
[1] = tested on: rat primary hippocampal cell culture; test: DNA fragmentation (propidium iodide, flow cytometry); type: cell-based; conditions: for cells with fragmented DNA: 24 hours, control 28.6%
Procedure: DNA fragmentation was assessed using propidium iodide following the method described by Lima et al.[47]. Hippocampal cells were incubated with 10^−4 or 10^−3 M AEME for 12 and 24 hours. Briefly, exposed cells were removed from the culture plate and centrifuged (500 g for 5 minutes) and lysed with a fragmentation buffer ([…] propidium iodide, 0.1% sodium citrate, and 0.1% Triton-X) for 2 hours at room temperature in the dark. DNA fragmentation was analyzed in a flow cytometry (FACSCalibur, Becton Dickinson, CA) using the FL2-A channel (λexcitation = 585 nm and λemission = 642 nm) and […] cells were evaluated per experiment.

[2] = tested on: rat primary hippocampal cell culture; test: MTT viability assay, AEME-induced neurotoxicity; type: cell-based; conditions: 10^−3 M AEME, 24 hours, % of control
Procedure: Neuronal viability was evaluated in the hippocampal cell culture using the 3-(4,5-dimethylthiazol-2-yl)-2,5-diphenyltetrazolium bromide (MTT; Sigma) reduction assay, with some modification. Briefly, after 24 hours of incubation with 10^−3 M AEME in the absence and in the presence of 10 nM pirenzepine hydrochloride (M1 selective antagonist; Sigma), 10 nM p-F-HHSiD (M3 selective antagonist; Sigma) and the specific inhibitor of different isoforms of PLC U73122 (10 nM)[55] (Sigma), all the medium was removed, and 100 μL of MTT solution, containing 5 mg/mL MTT in PBS and neurobasal medium without phenol red (1:9, v/v) were added. After 3 hours of incubation with MTT at 37 °C in a humidified atmosphere of 5% CO2, the MTT solution was removed and 200 μL of dimethyl sulfoxide was added to each well. After 30 minutes of shaking, the absorbance was measured at 570 nm in a multiwell plate reader (BioTek Synergy H1 Hybrid Reader). Potassium chloride (250 mM) was used as a positive control of neuronal death. Muscarinic antagonists, as well as the iPLC, were added 30 minutes prior to incubation with AEME. The antagonist concentration used was near the pKi[25][56]. A control containing 0.002% DMSO was used, since the iPLC stock solution was previously dissolved in this solvent. The assay was performed in quadruplicate, and the results were expressed as a percentage of the control value.

caspase-3 = tested on: caspase-3; parameters: method as in PMID 22523227; conditions: hippocampal neurons, 6 hours of exposure; cited from earlier work
Rat M5 mAChR = molecular target: T1, Rat M5 mAChR (Rattus norvegicus, UniProt P08911); test: [^3H]NMS radioligand competition binding, CHO cell membranes; conditions: rat M5, 0.1 nM [^3H]NMS
T1 construct: host or cells: CHO (CHO-K1) cells
T1 sequence (P08911 1-531): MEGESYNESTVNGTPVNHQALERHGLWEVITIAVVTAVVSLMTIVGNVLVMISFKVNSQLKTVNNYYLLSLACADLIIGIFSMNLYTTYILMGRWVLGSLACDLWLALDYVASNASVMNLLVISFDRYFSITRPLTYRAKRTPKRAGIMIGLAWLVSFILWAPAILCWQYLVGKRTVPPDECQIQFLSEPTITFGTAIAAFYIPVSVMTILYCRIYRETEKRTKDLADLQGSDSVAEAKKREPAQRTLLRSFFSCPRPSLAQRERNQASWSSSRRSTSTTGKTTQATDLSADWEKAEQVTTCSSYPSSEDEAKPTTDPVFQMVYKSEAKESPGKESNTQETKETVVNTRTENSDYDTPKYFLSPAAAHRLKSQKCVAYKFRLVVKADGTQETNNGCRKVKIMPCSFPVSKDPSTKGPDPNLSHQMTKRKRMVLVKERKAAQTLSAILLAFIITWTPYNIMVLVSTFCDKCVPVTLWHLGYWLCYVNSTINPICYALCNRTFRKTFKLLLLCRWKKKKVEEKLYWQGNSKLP
Procedure: Membranes were prepared from CHO cells stably expressing individual rat mAChRs (rM1 to rM5). Briefly, media was removed, cells were washed with PBS and harvested with PBS into a centrifuge bottle. Cells were spun at 2,000 g for 5 minutes at 4 °C. After harvesting, the supernatant was gently discarded and cold membrane preparation buffer [Hanks’ balanced salt solution (HBSS; Invitrogen), 4.17 mM sodium bicarbonate, 20 mM HEPES and 0.5 mM EDTA] was added (10 mL/dish). Cells were then homogenized for 5–10 seconds with a rotary homogenizer (Polytron®) and centrifuged at 20,000g for 20 minutes at 4 °C. The homogenization/centrifugation cycle was repeated twice. After the last centrifugation, the supernatant was gently discarded and the pellet was resuspended in cold membrane preparation buffer (up to 2 mL). All binding reactions were performed in a total volume of 1 mL containing 25 μg of membrane protein. […] The equilibrium binding was terminated by rapid filtration using a 96-well harvester (Brandel®). Filters were washed three times with ice-cold harvesting buffer and were dried overnight. Radioactivity was counted using a TopCount NXT (PerkinElmer®) and counts were normalized to the maximal specific binding in the presence of vehicle. Saturation and competition binding data were analyzed using a weighted nonlinear least-squares interactive curve-fitting program GraphPad Prism (GraphPad Prism Software version 5.0). A mathematical model for one or two binding sites was applied. The equilibrium dissociation constant (KD) and the binding capacity (Bmax) were determined. The inhibition constant (Ki) was determined from competition curves using the Cheng and Prusoff equation[52].

COC(=O)C1=CC[C@@H]2CC[C@H]1N2C [AEME, anhydroecgonine methyl ester]
cells with fragmented DNA ([1]; 10^−3 M): 44.1%
DNA fragmentation ([1]; 10^−4 or 10^−3 M, 12 hours): same pattern of DNA fragmentation as the control group
cells with fragmented DNA ([1]; lower AEME concentration (10^−4 M)): 32.1%
viable cells [2]: 67.2%
caspase-3 activity (caspase-3): increased
Ki (Rat M5 mAChR): 29.5 µM

From PMC4667193 (Scientific Reports, 2015)
